Test results: patent publication US20240226122A9, “TREATMENT OF GASTROINTESTINAL DISORDERS” (Greenspace Labs, Inc., priority 2022, published 2024)

Experiment: Micro evaporation screening, re-dissolution of API:polymer matrices
Type: physicochemical
Method: Micro evaporation screening experiments were done by dissolving API and polymer in an organic solvent and mixed in centrifuge tubes. Then the solvent was removed using vacuum concentrator. Samples were then mixed for 4, 10, and 30 minutes using phosphate buffer pH 6.8 as a reconstitution medium. For Eudragit S100 phosphate buffer pH 7.4 was used as a reconstitution media, citrate buffer pH 4.5 was used for Eudragit EPO. Phosphate buffer pH 6.8 was used for the rest of the polymers. Samples were mixed for 4, 10, and 30 minutes. Analysis was done by UV spectrometry to measure re-dissolution behavior of polymer system.
Several organic solvents were screened for the micro evaporation screening trials including acetone, tetrahydrofuran, dichloromethane, methanol, and ethanol.
Round 1 matrix Screening • 30:70 API:Soluplus • 30:70 API:Eudragit EPO • 30:70 API:Kollidon VA 64 • 25:75 API:PVP K30 • 25:75 API:Eudragit S100
Round 2 matrix screening with surfactants
Surfactants/solubilizers (5-10%) were screened for enhancement of spring-parachute effect, which is a strategy used in the pharmaceutical formulation to improve the solubility and bioavailability of poorly-soluble drugs: • PEG 1500 • Poloxamer 407 (HLB˜18) • SLS (HLB˜40) • Kolliphor RH40 (HLB−15) • TPGS (HLB˜13)
CBD Miniaturized Screening Experiment—Micro Evaporation Matrices screened: • API:Soluplus (30:70) • API:Eudragit EPO (30:70) • API:PVP K30 (25:75) • API:Eudragit S100 (25:75) • API:Kollidon VA64 (10:90) • API+Kollidon VA64+PEG1500 (10:85:5) • API+Kollidon VA64+SLS (10:85:5) • API+Kollidon VA64+Kolliphor RH40 (10:85:5) • API+Kollidon VA64+TPGS (10:85:5) • API+Kollidon VA64+Poloxamer 407 (10:85:5)
CBDA Miniaturized Screening Experiment—Micro Evaporation Matrices screened: • API:Eudragit EPO (30:70) • API:PVP K30 (30:70) • API:Soluplus (30:70) • API:Eudragit S100 (30:70) • API:Kollidon VA64 (25:75) • API+Kollidon VA64+PEG1500 (25:70:5) • API+Kollidon VA64+SLS (25:70:5) • API+Kollidon VA64+Kolliphor RH40 (25:70:5) • API+Kollidon VA64+TPGS (25:70:5) • API+Kollidon VA64+Poloxamer 407 (25:70:5)

In the case of C=C(C)[C@@H]1CCC(C)=C[C@H]1c1c(O)cc(CCCCC)cc1O [CBD, cannabidiol, reference compound], the “re-dissolution of API from matrix” value (CBD matrix with Kollidon VA64, at 10 min, 1 mg API per tube) is reported as “complete dissolution”.
Compound C=C(C)[C@@H]1CCC(C)=C[C@H]1c1c(O)cc(CCCCC)c(C(=O)O)c1O [CBDA, cannabidiolic acid] has a dissolution concentration (CBDA matrix with Kollidon VA64 with addition of SLS, Kolliphor RH40, 10 and 30 min timepoints) of 490 to 500 µg/mL.
For CCCCCc1cc(O)c(C/C=C(\C)CCC=C(C)C)c(O)c1C(=O)O [CBGA, cannabigerolic acid], the dissolution concentration (CBGA matrix with Kollidon VA64 with addition of SLS and Poloxamer 407) was 520 to 550 µg/mL.
